Assay [1] has as its system RPMI 8322 (ITKHI) melanoma cell line. As to the kind of experiment: proliferation assay (cell counts). Type of assay: cell-based, Human. To be noted: 50 nM. The source says: (§1) FIG. 4A-4E. Effects of ITK knockdown on proliferation and motility of melanoma cells. FIG. 4A) Western of lysates of VMM 39 containing each of the four shRNA constructs using rabbit monoclonal anti ITK (Y401). FIG. 4B) The four shRNA lentiviral constructs were used to transduce three melanoma cell lines, PMWK (ITKLO), VMM 39 (ITKHI), and RPMI 8322 (ITKHI). 50,000 cells were placed into each well of a 6 well plate, which was then counted 3, 5, and 6, or 7 days after plating to assess the proliferation rates of the different cell lines. FIG. 4C) Single Cell Motility assays were performed on three different melanoma cell lines, PMWK, VMM 39, and RPMI 8322. Each melanoma cell line was transduced with the four shRNA lentiviral constructs producing a total of 12 cell lines. 10,000 cells were plated on fibronectin coated glass bottom dishes. Pictures were taken once every 40 minutes for 16 hours. FIG. 4D) Cell cycle analysis of PMWK, VMM 39, and RPMI 8322 cells that have been transduced with various shRNAs. Cells were harvested after 3 hours of incubation with 5-ethynyl-2′-deoxyuridine (EdU). EdU incorporation and DNA content with FxCycle Violet were analyzed using flow cytometry. Illustrated in this panel are the percentages of cells in G0/G1 (low DNA and EdU content), S (high EdU and low-to-medium DNA content), and G2/M (Low EdU and high DNA content). FIG. 4E) Single-cell motility analysis of PMWK, VMM 39, and RPMI 8322 that have been transduced with various shRNAs. At least 50 cells were tracked for each cell line and the average motility rate was determined. […]
(§2) FIG. 5A-5C. […] Cells were trypsinized and counted using the Invitrogen Countess. […] The cells were counted with the Invitrogen Countess at 3, 5, and 6 or 7 days after plating to assess the proliferation rates of the different cell lines in the presence of BI 10N. […] Following 3 days of BI 10N treatment, the cells were incubated with EdU for 3 hours and were subsequently assessed for 5-ethynyl-2′-deoxyuridine (EdU) incorporation rate and DNA content with FxCycle Violet. […]

Assay [2] relates to PMWK (ITKLO) melanoma cell line. As to the kind of experiment: proliferation assay (cell counts). Type of assay: cell-based, Human. To be noted: inhibitor as high as 150 nM.
Source text: as §1, §2

In assay [3] the test system is VMM 39 (ITKHI) melanoma cell line. The assay is described as follows: proliferation assay (cell counts). Type of assay: cell-based, Human. To be noted: 50 nM.
Source text: as §1, §2

For the next assay, the system named is VMM 39 (ITKHI) cells. The assay is described as follows: cell cycle analysis (EdU, FxCycle Violet). Type of assay: cell-based, Human. To be noted: 3 days of treatment, dose-dependent. The method, then:
(§3) FIG. 5A-5C. Effects of BI 10N inhibitor on proliferation and motility of melanoma cells. FIG. 5A) Cell motility assays were performed as described in FIG. 4A-4E; however, the inhibitor BI 10N was added to the media to decrease ITK kinase activity in parental cell lines instead of using the shRNA ITK knockdown cell lines. BI 10N was added to the media 24 hours prior to the start of the motility assay and the VivaView camera system was used to image cellular motility of the melanoma cells as described previously. FIG. 5B) The proliferation assays were completed as described in FIG. 4A-4E, substituting the BI 10N compound for the shRNA. Cells were trypsinized and counted using the Invitrogen Countess. Fifty thousand cells were placed into each well of a 6 well plate and BI 10N was added to the indicated concentrations. The cells were counted with the Invitrogen Countess at 3, 5, and 6 or 7 days after plating to assess the proliferation rates of the different cell lines in the presence of BI 10N. FIG. 5C) Both ITKHI (RPMI 8322) and ITKLO (PMWK) melanoma cell lines were grown in the presence of BI 10N (10-200 nM) in soft agar. In 24-well cell culture plates 2,500 cells per well were added to a 1.4% agarose solution. The agarose and cell solution was then poured on top of a solidified base agar. The cells were incubated at 37° C. for three to four weeks to ensure adequate growth before analysis. FIG. 5D) Cell cycle analysis of PMWK, VMM 39, and RPMI 8322 cells that have been treated with increasing concentrations of BI 10N. Following 3 days of BI 10N treatment, the cells were incubated with EdU for 3 hours and were subsequently assessed for 5-ethynyl-2′-deoxyuridine (EdU) incorporation rate and DNA content with FxCycle Violet. Shown in this panel are the percentages of cells in G0/G1 (low DNA and EdU content), S (high EdU and low-to-medium DNA content), and G2/M (Low EdU and high DNA content)
(§4) Melanoma cells were grown to approximately 60% confluence in T25 tissue culture flasks (Corning Product #430639). […]

Another assay relates to PMWK (ITKLO) cells. As to the kind of experiment: cell cycle analysis (EdU, FxCycle Violet). Type of assay: cell-based, Human. To be noted: 3 days of treatment. How it is done:
as §3, §4

The test system of another assay is RPMI 8322 (ITKHI) cells. As to the kind of experiment: cell cycle analysis (EdU, FxCycle Violet). Type of assay: cell-based, Human. To be noted: 3 days of treatment, dose-dependent. How it is done:
as §3, §4

Assay [4] has as its system PMWK (ITKLO) melanoma cell line. The assay is described as follows: single cell motility assay. It is filed as cell-based, Human. The text has this: FIG. 4A-4E. Effects of ITK knockdown on proliferation and motility of melanoma cells. FIG. 4A) Western of lysates of VMM 39 containing each of the four shRNA constructs using rabbit monoclonal anti ITK (Y401). FIG. 4B) The four shRNA lentiviral constructs were used to transduce three melanoma cell lines, PMWK (ITKLO), VMM 39 (ITKHI), and RPMI 8322 (ITKHI). 50,000 cells were placed into each well of a 6 well plate, which was then counted 3, 5, and 6, or 7 days after plating to assess the proliferation rates of the different cell lines. FIG. 4C) Single Cell Motility assays were performed on three different melanoma cell lines, PMWK, VMM 39, and RPMI 8322. Each melanoma cell line was transduced with the four shRNA lentiviral constructs producing a total of 12 cell lines. 10,000 cells were plated on fibronectin coated glass bottom dishes. Pictures were taken once every 40 minutes for 16 hours. FIG. 4D) Cell cycle analysis of PMWK, VMM 39, and RPMI 8322 cells that have been transduced with various shRNAs. Cells were harvested after 3 hours of incubation with 5-ethynyl-2′-deoxyuridine (EdU). EdU incorporation and DNA content with FxCycle Violet were analyzed using flow cytometry. Illustrated in this panel are the percentages of cells in G0/G1 (low DNA and EdU content), S (high EdU and low-to-medium DNA content), and G2/M (Low EdU and high DNA content). FIG. 4E) Single-cell motility analysis of PMWK, VMM 39, and RPMI 8322 that have been transduced with various shRNAs. At least 50 cells were tracked for each cell line and the average motility rate was determined. Shown with asterisks are the shRNA-transduced melanoma cell lines with significant impairment in motility (P<0.001 one-way ANOVA following Bonferroni adjustments for multiple comparisons).
FIG. 5A-5C. Effects of BI 10N inhibitor on proliferation and motility of melanoma cells. FIG. 5A) Cell motility assays were performed as described in FIG. 4A-4E; however, the inhibitor BI 10N was added to the media to decrease ITK kinase activity in parental cell lines instead of using the shRNA ITK knockdown cell lines. BI 10N was added to the media 24 hours prior to the start of the motility assay and the VivaView camera system was used to image cellular motility of the melanoma cells as described previously. […] Cells were trypsinized and counted using the Invitrogen Countess. […] The cells were counted with the Invitrogen Countess at 3, 5, and 6 or 7 days after plating to assess the proliferation rates of the different cell lines in the presence of BI 10N. […] Following 3 days of BI 10N treatment, the cells were incubated with EdU for 3 hours and were subsequently assessed for 5-ethynyl-2′-deoxyuridine (EdU) incorporation rate and DNA content with FxCycle Violet. […]

The next assay concerns the target T1, ITK (Homo sapiens, UniProt Q08881).
T1 construct: purchased Carna Biosciences
T1 sequence (Q08881 1-620): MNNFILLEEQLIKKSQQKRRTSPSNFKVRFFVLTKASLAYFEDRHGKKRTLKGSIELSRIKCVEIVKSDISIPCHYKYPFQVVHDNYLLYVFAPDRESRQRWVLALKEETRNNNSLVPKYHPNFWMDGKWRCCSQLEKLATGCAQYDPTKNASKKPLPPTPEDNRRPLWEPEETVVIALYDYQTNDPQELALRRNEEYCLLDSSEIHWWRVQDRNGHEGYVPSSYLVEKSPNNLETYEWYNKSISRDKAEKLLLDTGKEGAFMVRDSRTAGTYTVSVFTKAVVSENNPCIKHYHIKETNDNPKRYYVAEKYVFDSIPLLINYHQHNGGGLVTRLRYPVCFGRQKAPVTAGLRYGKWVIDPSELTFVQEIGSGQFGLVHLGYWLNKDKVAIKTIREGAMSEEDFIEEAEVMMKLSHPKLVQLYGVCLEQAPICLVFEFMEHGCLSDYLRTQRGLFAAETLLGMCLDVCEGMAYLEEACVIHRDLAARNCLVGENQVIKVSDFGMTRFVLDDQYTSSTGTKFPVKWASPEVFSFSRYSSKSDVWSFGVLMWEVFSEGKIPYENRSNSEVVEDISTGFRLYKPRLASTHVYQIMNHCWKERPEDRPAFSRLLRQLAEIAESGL
The conditions noted are these: Riether et al., 2009, cited from earlier work.

pEC50, pIC50: −log10 of the molar value.

Broadly, the pEC50 is −log10 of the EC50, conventionally taken in molar units. In general, pIC50 refers to the IC50 on a negative log10 scale, so that one unit is a factor of ten. For `CC(C)C(C)CNCc1ccc2c(c1)[nH]/c(=N\C(=O)c1ccc(C3=CN=NC3)s1)n2CC(C)(C)O` (stereo not shown) [BI 10N], the “increase in doubling time” value in assay [1] and in assay [3] was “about 50%” each time. For the same compound, the “effect on doubling time” value in assay [2] is on record as “did not increase their doubling time”. The cell cycle profile result with VMM 39 (ITKHI) cells is “increased the percentage of cells in the G0/G1 phase and decreased the percentage of cells in the S phase”; with PMWK (ITKLO) cells it was “No cell cycle changes”; in the assay on RPMI 8322 (ITKHI) cells, “increased the percentage of cells in the G0/G1 phase and decreased the percentage of cells in the S phase”. For the same compound, the “concentration required for smaller changes in migration” value in assay [4] is listed as at least 150 nM. For the same compound, the effect on migration entry in assay [4] (10-25 nM) is on record as “do not decrease”. Further, on ITK (read-out: EC50 (selective inhibitor of ITK)), the pEC50 is 9.00. At ITK (read-out: IC50 (inhibit ITK)), the pIC50 is 9.00.

These data come from patent US9649313B2, “Use of ITK inhibitors for the treatment of cancer” (The University of North Carolina at Chapel Hill, priority 2012, dated 2017).
